Results reported in PMC8483441 (Journal of Medicinal Chemistry, 2021).
Converted amounts (≈) assume the structure as drawn. “Also recorded” adds a separate entry of the source. Read-outs that look alike come from different tables or passages of the source. Square brackets hold non-standard residues; d marks the D form. Peptide text beside a SMILES is read from it. hArg = N=C(N)NCCCC[C@H](N)C(=O)O; Dab = NCC[C@H](N)C(=O)O

Columns and labels:
[1] = tested on: Shigella flexneri; conditions: 50 μL from MIC wells seeded into Petri plates, 24 h; lowest concentration without detectable growth
Procedure: The antibiotic activity was defined by the minimum peptide concentration where the microorganism is unable to grow. The assay was done in polypropylene 96-well plates (Greiner, Frickenhausen, Germany) to avoid peptide binding to plate wells. Peptides were dissolved in water containing 0.4% w/v bovine serum albumin (BSA) and 0.02% v/v glacial acetic acid to prevent self-aggregation, following the reference protocol by Wiegand et al.,[42] based on the classical microtiter broth dilution recommended by the National Committee of Laboratory Safety and Standards (NCLSS). Initial bacteria inoculum was adjusted to 5 × 10^5 CFU/mL in Mueller-Hinton (MH) medium. Incubations were kept at 37 °C for 24 h. Results are the average of three independent studies. […] To determine the MBC, 50 μL from all wells were seeded into Petri plates and incubated for 24 h. The MBC concentration was attributed to the lowest concentration without detectable bacterial growth for each peptide.

[2] = tested on: Salmonella enterica; assay type: cell-based; conditions: 24 h
Procedure: (§1) Incubations were kept at 37 °C for 24 h. Results are the average of three independent studies.

[3] = tested on: Escherichia coli; assay type: cell-based; conditions: 24 h
Procedure: as §1

[4] = tested on: Acinetobacter baumannii; assay type: cell-based; conditions: 24 h
Procedure: as §1

[5] = tested on: A. baumannii; assay type: cell-based, Acinetobacter baumannii; conditions: 24 h
Procedure: (§2) Human serum was purchased from Sigma (St Louis, USA).
as §1

[6] = tested on: S. flexneri; conditions: 24 h
From the text: Purified horse red blood cells were acquired from Thermo Fisher Scientific (Hampshire, England). Human serum was purchased from Sigma (St Louis, USA). E. coli was obtained from the Coli Genetic Stock Center (BW25113). S. flexneri (ATCC 29903), A. baumannii (ATCC 15308), Pseudomonas sp. (ATCC 15915), and S. enterica (ATCC 14028) were obtained from the CECT (Valencia, Spain). Clinical strains were supplied by the Vall d’Hebron Hospital (Barcelona, Spain). MRC5 fibroblasts were obtained from the Cytometry and Cell Culture Facility (SCAC, UAB) and originally purchased from ATCC.
The antibiotic activity was defined by the minimum peptide concentration where the microorganism is unable to grow. The assay was done in polypropylene 96-well plates (Greiner, Frickenhausen, Germany) to avoid peptide binding to plate wells. Peptides were dissolved in water containing 0.4% w/v bovine serum albumin (BSA) and 0.02% v/v glacial acetic acid to prevent self-aggregation, following the reference protocol by Wiegand et al.,[42] based on the classical microtiter broth dilution recommended by the […]. Initial bacteria inoculum was adjusted to 5 × 10^5 CFU/mL in Mueller-Hinton (MH) medium. Incubations were kept at 37 °C for 24 h. Results are the average of three independent studies. MIC assays in the presence of serum were performed by incubating the peptide with human serum at a 1:1 ratio. Then, 10^6 cfu/mL of Pseudomonas sp. were incubated with serial dilutions of the peptides for 4 h. To determine the MBC, 50 μL from all wells were seeded into Petri plates and incubated for 24 h. The MBC concentration was attributed to the lowest concentration without detectable bacterial growth for each peptide.

[7] = tested on: Pseudomonas sp.; assay: Minimum bactericidal concentration (MBC); assay type: cell-based; conditions: 50 μL from MIC wells seeded into Petri plates, 24 h; lowest concentration without detectable growth
Procedure: as §1

[8] = tested on: E. coli; assay: Antimicrobial resistance, recurrent incubation; assay type: cell-based; conditions: for MIC: Escherichia coli
Procedure: To test whether recurrent incubation of bacteria with peptides could induce resistance, E. coli (10^7 cfu/mL) were incubated with peptides (1 μM) or ciprofloxacin (1 μg/mL) for 1 h. After incubation, cells were centrifuged, washed, and grown overnight in Mueller-Hinton medium. The cycle of incubation and growth was repeated in a cyclic manner for 7 days, and each day, cultures were tested for MIC to detect resistance.

[9] = tested on: Pseudomonas sp.; assay: MIC, broth microdilution; assay type: cell-based; conditions: Pseudomonas sp. ATCC 15915; Mueller-Hinton medium, 5 × 10^5 CFU/mL, 37 °C, 24 h; average of three independent studies
Procedure: as §2, §1

[10] = tested on: S. enterica; assay type: cell-based, Salmonella enterica; conditions: 24 h
Procedure: as §2, §1

[11] = tested on: Pseudomonas sp.; assay: MIC of peptides incubated with human serum; assay type: cell-based; conditions: peptide incubated with human serum 1:1; 10^6 cfu/mL Pseudomonas sp., 4 h
Procedure: as §1

[12] = Cytotoxicity in mammalian cells (MTT assay); assay type: cell-based; conditions: MRC-5 cytotoxicity (IC50)
Procedure: MRC-5 cells were grown in Eagle’s minimum essential medium (MEMα), supplemented with 10% fetal bovine serum (FBS). 96-well plates were seeded with 3 × 10^4 cells/well and cultured overnight in order to get cells adhered into the plate and then incubated with two-fold peptide serial dilutions. After 4 h of incubation, the medium containing the peptides was replaced by MEMα supplemented with FBS and 3-(4,5-dimethylthiazol-2-yl)-2,5-diphenyltetrazolium bromide (MTT) at 0.4 mg/mL and incubated for 150 min. Detection of formazan crystals in the living cells was done by cell disruption by addition of 200 μL of dimethyl sulfoxide (DMSO) followed by absorbance measuring at 600 nm in a Tecan Infinite F Nano+ microplate reader (Tecan, Germany). Results are the average of three independent studies.

[13] = tested on: E. coli; assay type: cell-based, Escherichia coli; conditions: 24 h
Procedure: as §2, §1

[14] = tested on: horse red blood cells; assay: Hemolytic activity; assay type: cell-based
Procedure: The peptide toxicity was determined detecting the disruption of horse red blood cells, following a previous assay report.[35] 10-fold diluted cells in PBS were centrifuged three times at 800g to eliminate the hemoglobin from disrupted cells. After the last resuspension, erythrocytes were incubated with the peptides for 4 h at 37 °C. The detection was done measuring the supernatant absorbance in a VICTOR3 multilabel plate reader (Perkin Elmer, Waltham, Massachusetts) at 540 nm in a microplate reader. Percentage of hemolysis was calculated through a pattern done with dilutions of total cell lysis done with a 1% Triton X-100 buffer. Results are the average of three independent studies.

[15] = 50% (v/v) Human Serum; conditions: up to 480 min
[16] = 50 μL from MIC wells seeded into Petri plates, lowest concentration without detectable growth

Molecule	MBC Shigella flexneri [1] [µM]	MBC Pseudomonas sp. [7] [µM]	MIC Pseudomonas sp. [9] [µM]	MBC Salmonella enterica [2] [µM]	MBC Escherichia coli [3] [µM]	MBC Acinetobacter baumannii [4] [µM]	MIC A. baumannii [5] [µM]	MIC S. flexneri [6] [µM]	MIC S. enterica [10] [µM]	MIC in Pseudomonas sp., peptides incubated with human serum [11] [µM]	IC50 [12] [µM]	MIC E. coli [13] [µM]	hemolysis % (250 μM peptide) ([14]; red cells of horse, 4 h, 250) [%]	cleaved bond [15]	also measured
CC[C@H](C)[C@H](NC(=O)[C@H](CCCCN)NC(=O)[C@H](CCC(=O)O)NC(=O)[C@H](CCCCN)NC(=O)[C@H](CO)NC(=O)[C@H](CCCCN)NC(=O)[C@H](CCCNC(=N)N)NC(=O)[C@H](Cc1ccccc1)NC(=O)[C@H](Cc1ccccc1)NC(=O)[C@H](CC(=O)O)NC(=O)CNC(=O)[C@H](CC(C)C)NC(=O)[C@@H](N)CC(C)C)C(=O)NCC(=O)N[C@@H](CCCCN)C(=O)N[C@@H](CCC(=O)O)C(=O)N[C@@H](Cc1ccccc1)C(=O)N[C@@H](CCCCN)C(=O)N[C@@H](CCCNC(=N)N)C(=O)N[C@H](C(=O)N[C@H](C(=O)N[C@@H](CCC(N)=O)C(=O)N[C@@H](CCCNC(=N)N)C(=O)N[C@H](C(=O)N[C@@H](CCCCN)C(=O)N[C@@H](CC(=O)O)C(=O)N[C@@H](Cc1ccccc1)C(=O)N[C@@H](CC(C)C)C(=O)N[C@@H](CCCNC(=N)N)C(=O)N[C@@H](CC(N)=O)C(=O)N[C@@H](CC(C)C)C(=O)N[C@H](C(=O)N1CCC[C@H]1C(=O)N[C@@H](CCCNC(=N)N)C(=O)N[C@H](C(=O)N[C@@H](CCC(=O)O)C(=O)N[C@@H](CO)C(=O)O)[C@@H](C)O)C(C)C)[C@@H](C)CC)C(C)C)[C@@H](C)CC [LL-37, reference compound]	12.5 (≈ 56.2 µg/mL)	1.56 (≈ 7.01 µg/mL)	1.56 (≈ 7.01 µg/mL)	–	–	–	–	–	–	–	–	–	–	–	MBC Salmonella enterica [2, 16]: 12.5 µM (≈ 56.2 µg/mL); MBC Escherichia coli [3, 16]: 1.56 µM (≈ 7.01 µg/mL); MBC Acinetobacter baumannii [4, 16]: 6.25 µM (≈ 28.1 µg/mL); MIC A. baumannii ([5]; A. baumannii ATCC 15308, Mueller-Hinton medium, 5 × 10^5 CFU/mL, 37 °C, average of three independent studies): 6.25 µM (≈ 28.1 µg/mL); MIC S. flexneri ([6]; S. flexneri ATCC 29903, Mueller-Hinton medium, 5 × 10^5 CFU/mL, 37 °C, average of three independent studies): 12.5 µM (≈ 56.2 µg/mL); increase in MIC (induced resistance) in E. coli ([8]; 7 rounds of incubation with 1 μM peptide, below the MIC): did not detect a significant increase in MIC; MIC S. enterica ([10]; S. enterica ATCC 14028, Mueller-Hinton medium, 5 × 10^5 CFU/mL, 37 °C, average of three independent studies): 12.5 µM (≈ 56.2 µg/mL)
O=C(O)c1cn(C2CC2)c2cc(N3CCNCC3)c(F)cc2c1=O [ciprofloxacin]	–	–	–	–	–	–	–	–	–	–	–	–	–	–	MIC ([8]; after four cycles of incubation with ciprofloxacin (1 μM; 1 μg/mL elsewhere in the source), 1 h per cycle, 10^7 cfu/mL, read-out: MIC against E. coli after four cycles of incubation): 5 µM (≈ 1.66 µg/mL); MIC ([8]; start of recurrent incubation, read-out: MIC against E. coli before resistance cycles): 1.5 µM (≈ 0.497 µg/mL)
CC[C@H](C)[C@H](NC(=O)[C@H](C)NC(=O)[C@H](CCN)NC(=O)[C@H](CCSC)NC(=O)[C@H](C)NC(=O)[C@@H](NC(=O)[C@@H](NC(=O)[C@H](CCN)NC(=O)[C@@H]1CCCN1C(=O)[C@H](CO)NC(=O)[C@@H](NC(=O)[C@H](Cc1c[nH]cn1)NC(=O)[C@H](CCC(N)=O)NC(=O)[C@@H](NC(=O)[C@H](C)NC(=O)[C@H](Cc1ccccc1)NC(=O)[C@H](Cc1c[nH]c2ccccc12)NC(=O)[C@H](CCC(N)=O)NC(=O)[C@H](C)NC(=O)[C@H](CCN)NC(=O)[C@@H](NC(=O)[C@H](Cc1ccccc1)NC(=O)[C@@H]1CCCN1C(=O)[C@@H](N)CCN)[C@@H](C)O)[C@@H](C)CC)[C@@H](C)CC)[C@@H](C)O)[C@@H](C)CC)C(=O)N[C@@H](CC(N)=O)C(=O)N[C@@H](CC(N)=O)C(=O)N[C@@H](Cc1ccc(O)cc1)C(=O)N[C@@H](CCN)C(=O)N[C@@H](Cc1c[nH]c2ccccc12)C(=O)N[C@@H](CCN)C(N)=O [compound 3] (H-[Dab]PFT[Dab]AQWFAIQHISP[Dab]TIAM[Dab]AINNY[Dab]W[Dab]-NH2)	6.25 (≈ 21.4 µg/mL)	3.13 (≈ 10.7 µg/mL)	3.13 (≈ 10.7 µg/mL)	50 (≈ 171 µg/mL)	6.25 (≈ 21.4 µg/mL)	50 (≈ 171 µg/mL)	50 (≈ 171 µg/mL)	6.25 (≈ 21.4 µg/mL)	50 (≈ 171 µg/mL)	12.5	182 ± 9	6.25 (≈ 21.4 µg/mL)	14 ± 6	–	hemolysis % (250 μM peptide) [14]: 10%
CC[C@H](C)[C@H](NC(=O)[C@H](C)NC(=O)[C@H](CCCCNC(=N)N)NC(=O)[C@H](CCSC)NC(=O)[C@H](C)NC(=O)[C@@H](NC(=O)[C@@H](NC(=O)[C@H](CCCCNC(=N)N)NC(=O)[C@@H]1CCCN1C(=O)[C@H](CO)NC(=O)[C@@H](NC(=O)[C@H](Cc1c[nH]cn1)NC(=O)[C@H](CCC(N)=O)NC(=O)[C@@H](NC(=O)[C@H](C)NC(=O)[C@H](Cc1ccccc1)NC(=O)[C@H](Cc1c[nH]c2ccccc12)NC(=O)[C@H](CCC(N)=O)NC(=O)[C@H](C)NC(=O)[C@H](CCCCNC(=N)N)NC(=O)[C@@H](NC(=O)[C@H](Cc1ccccc1)NC(=O)[C@@H]1CCCN1C(=O)[C@@H](N)CCCCNC(=N)N)[C@@H](C)O)[C@@H](C)CC)[C@@H](C)CC)[C@@H](C)O)[C@@H](C)CC)C(=O)N[C@@H](CC(N)=O)C(=O)N[C@@H](CC(N)=O)C(=O)N[C@@H](Cc1ccc(O)cc1)C(=O)N[C@@H](CCCCNC(=N)N)C(=O)N[C@@H](Cc1c[nH]c2ccccc12)C(=O)N[C@@H](CCCCNC(=N)N)C(N)=O [compound 4] (H-[hArg]PFT[hArg]AQWFAIQHISP[hArg]TIAM[hArg]AINNY[hArg]W[hArg]-NH2)	3.13 (≈ 12 µg/mL)	3.13 (≈ 12 µg/mL)	3.13 (≈ 12 µg/mL)	25 (≈ 96 µg/mL)	6.25 (≈ 24 µg/mL)	12.5 (≈ 48 µg/mL)	12.5 (≈ 48 µg/mL)	3.13 (≈ 12 µg/mL)	25 (≈ 96 µg/mL)	6.25	7.6 ± 0.7	6.25 (≈ 24 µg/mL)	43 ± 1	–	–
OPFTOAQWFAIQHISPOTIAMOAINNYOWO	–	–	–	–	–	–	–	–	–	–	–	–	–	Pro2-Phe3	fragment found [15]: OPFTOAQWFAIQHISPO-------------; also recorded: -----------------TIAMOAINNYOWO; also recorded: OPFTOAQWFAIQHIS---------------; also recorded: ------QWFAIQHISPOTIAMOAINNY---
RPFTRAQWFAIQHISPRTIAMRAINNYRWR	–	–	–	–	–	–	–	–	–	–	–	–	–	Pro2-Phe3	–
